From patent US20180251495A1, “Skin-Penetrating Peptides and Compositions and Methods of Use Thereof” (The Regents of the University of California, priority 2015, published 2018)
Like-named read-outs stand apart in the source and are kept apart here. Where a SMILES comes first, the peptide text is derived from it. Bridges are numbered along the chain shown (N, C = ends). Where no end group is shown, it is not given here.

What was measured:
[1] = tested on: HEKa cells (human adult epidermal keratinocytes); experiment: MTT cytotoxicity assessment in keratinocytes; assay type: cell-based; settings: overnight incubation, MTT
Description: (§1) HEKa cells were cultured in 1× keratinocyte Serum-Free Medium supplemented with 25 U/mL penicillin, 25 μg/mL streptomycin, and 50 μg/mL neomycin. Cultures were grown at 37° C. with 5% CO2. The cytotoxicity of SPPs was assessed using the MTT Cell Proliferation Assay (ATCC, Manassas, Va.). HEKa cells were seeded in 96-well microplates (Corning Inc., Corning, N.Y.) at a density of 5000 cells/well. Cultures were allowed to grow until they reached ˜80% confluency. Cells were then incubated with 200 μL of 10, 5, or 2.5 mg/mL of selected SPPs in media. The pH was adjusted to afford complete dissolution of peptides. Media only was used as a negative control, and media or SPP formulations without cells was used to subtract background. Cytotoxicity was assessed after overnight incubation. Viability was determined according to the manufacturer's recommended protocol using a SAFIRE, XFLUOR4, V4.50 microplate reader (Tecan Group Ltd, Morrisville, N.Y.).
(§2) To assess the potential for skin toxicity, SPPs were incubated with HEKa cells overnight and % viability was determined. HEKa cells were used since keratinocytes are the primary cell-type in the skin, and therefore, represent a good estimate of the potential for skin irritation.

[2] = In vitro skin permeation of radiolabelled SPPs in Franz diffusion cells; assay type: in vitro ADME, porcine
Description: Test formulations were loaded and incubated as described.
The skin penetrating ability of the selected heptamer (SP7-1 through SP7-5) SPPs was evaluated in comparison with SPACE™. […] Radiolabelled peptides were loaded on Franz diffusion cells (FDCs) and incubated at 37° C. with moderate stirring. After 24 hours, the various skin layers were harvested, dissolved and analyzed using a scintillation counter to determine the amount of peptide.

[3] = for solubility in PBS: PBS pH 8.0
[4] = MTT cytotoxicity assessment in keratinocytes; assay type: cell-based, human; settings: human, HEKa cells (adult epidermal keratinocytes); HEKa cells exposed to 5 mg/mL peptide in solution
Description: as §1, §2

human keratin (human) [5] = experiment: batch affinity chromatography, peptide on Toyopearl resin, human keratin in solution, Langmuir fit
human keratin (human) [6] = experiment: batch adsorption isotherm (affinity chromatography): peptide coupled to Toyopearl AF-Epoxy-650 resin, human keratin in PBS pH 7.4 in solution, Langmuir fit
[7] = peptide amount after 24 hours, 37° C.

## C[C@H](N)C(=O)N[C@H]1CSSC[C@@H](C(=O)NCC(=O)O)NC(=O)[C@H](CC(N)=O)NC(=O)[C@H](CCCNC(=N)N)NC(=O)CNC(=O)[C@H]([C@@H](C)O)NC(=O)[C@H](Cc2c[nH]cn2)NC(=O)[C@H]([C@@H](C)O)NC1=O [SP6-1, ACTHTGRNCG] (H-ACTHTGRNCG-OH; disulfide 2-9; N-terminus and C-terminus assumed)
[1]
  toxicity to HEKa cells: no observable toxicity
[1]; listed as hexamer
  toxicity to HEKa cells: non-toxic at concentrations as high as 10 mg/mL

## CC(C)C[C@@H]1NC(=O)[C@H]([C@@H](C)O)NC(=O)[C@H](C)NC(=O)[C@H](CO)NC(=O)[C@@H](NC(=O)[C@H](C)N)CSSC[C@@H](C(=O)NCC(=O)O)NC(=O)[C@H](CO)NC(=O)[C@H](Cc2c[nH]cn2)NC(=O)[C@H](CCC(N)=O)NC1=O [SP7-1, ACSATLQHSCG] (H-ACSATLQHSCG-OH; disulfide 2-10; N-terminus and C-terminus assumed)
[2]; [7]
  Skin permeation, Dermis: 149.7 ± 5.6 μg/cm^2
  Skin permeation, Receptor: 42.4 ± 8.5 μg/cm^2
  Skin permeation, SC + Epidermis: 819.2 ± 62.2 μg/cm^2
[1]
  toxicity to HEKa cells: only toxic when at 10 mg/mL
[3]; PBS
  pH adjusted to achieve complete solubility: 8.5

## CC(C)C[C@@H]1NC(=O)[C@H](CO)NC(=O)[C@@H](NC(=O)[C@H](C)N)CSSC[C@@H](C(=O)NCC(=O)O)NC(=O)[C@H](CC(N)=O)NC(=O)[C@H](Cc2c[nH]c3ccccc23)NC(=O)[C@H](CC(N)=O)NC(=O)[C@H](C(C)C)NC(=O)[C@H]([C@@H](C)O)NC1=O [SP7-2, ACSLTVNWNCG] (H-ACSLTVNWNCG-OH; disulfide 2-10; N-terminus and C-terminus assumed)
[2]; [7]
  Skin permeation, Dermis: 166.7 ± 45.2 μg/cm^2
  Skin permeation, Receptor: 65.0 ± 14.1 μg/cm^2
  Skin permeation, SC + Epidermis: 774.0 ± 110.2 μg/cm^2
[1]; listed as SP-2
  toxicity to HEKa cells: some toxicity for all concentrations tested, however, the results were not statistically significant
[3]
  solubility in PBS: did not give any solubility problems

## CC(C)C[C@@H]1NC(=O)[C@@H](NC(=O)[C@H](C)N)CSSC[C@@H](C(=O)NCC(=O)O)NC(=O)[C@H](C)NC(=O)[C@H](CC(N)=O)NC(=O)[C@H](Cc2c[nH]cn2)NC(=O)[C@H](CC(N)=O)NC(=O)[C@H](C(C)C)NC(=O)[C@H](CO)NC1=O [SP7-3, ACLSVNHNACG] (H-ACLSVNHNACG-OH; disulfide 2-10; N-terminus and C-terminus assumed)
[2]; [7]
  Skin permeation, Dermis: 39.5 ± 25.4 μg/cm^2
  Skin permeation, Receptor: 16.9 ± 11.3 μg/cm^2
  Skin permeation, SC + Epidermis: 759.9 ± 73.4 μg/cm^2
[1]
  toxicity to HEKa cells: significantly toxic (p <0.001) at only 1 mg/mL
[3]; in presence of CsA
  solubility in presence of CsA: could not be fully solubilized

## C[C@H](N)C(=O)N[C@H]1CSSC[C@@H](C(=O)NCC(=O)O)NC(=O)[C@H](C)NC(=O)[C@H](CC(N)=O)NC(=O)[C@H](CCCNC(=N)N)NC(=O)CNC(=O)[C@H]([C@@H](C)O)NC(=O)[C@H](CO)NC(=O)[C@H]([C@@H](C)O)NC1=O [SP7-4, ACTSTGRNACG] (H-ACTSTGRNACG-OH; disulfide 2-10; N-terminus and C-terminus assumed)
[2]; [7]
  Skin permeation, Dermis: 53.7 ± 31.1 μg/cm^2
  Skin permeation, Receptor: 19.8 ± 19.8 μg/cm^2
  Skin permeation, SC + Epidermis: 545.2 ± 79.1 μg/cm^2
[1]
  toxicity to HEKa cells: significantly toxic (p <0.001) at only 1 mg/mL
[3]
  solubility in PBS: did not give any solubility problems

## C[C@H](N)C(=O)N[C@H]1CSSC[C@@H](C(=O)NCC(=O)O)NC(=O)[C@H](CC(N)=O)NC(=O)[C@H](Cc2c[nH]cn2)NC(=O)[C@H](CC(N)=O)NC(=O)[C@H]([C@@H](C)O)NC(=O)[C@H](CO)NC(=O)[C@H](C)NC(=O)[C@H](CO)NC1=O [SP7-5, ACSASTNHNCG] (H-ACSASTNHNCG-OH; disulfide 2-10; N-terminus and C-terminus assumed)
[2]; [7]
  Skin permeation, Dermis: 124.3 ± 28.2 μg/cm^2
  Skin permeation, Receptor: 39.5 ± 8.5 μg/cm^2
  Skin permeation, SC + Epidermis: 759.9 ± 62.1 μg/cm^2
[4]
  viability at 5000 µg/mL: 60.1 ± 2.6%
[1]
  toxicity to HEKa cells: significantly toxic (p <0.001) at only 1 mg/mL
[3]
  solubility in PBS: did not give any solubility problems

## C[C@H](N)C(=O)N[C@H]1CSSC[C@@H](C(=O)NCC(=O)O)NC(=O)[C@H]([C@@H](C)O)NC(=O)[C@H](CO)NC(=O)[C@H](CCCNC(=N)N)NC(=O)[C@H](C)NC(=O)[C@H](CCC(N)=O)NC(=O)[C@H](Cc2c[nH]cn2)NC(=O)[C@H](C)NC(=O)[C@H](CC(N)=O)NC1=O [SP8-1, ACNAHQARSTCG] (H-ACNAHQARSTCG-OH; disulfide 2-11; N-terminus and C-terminus assumed)
[1]
  toxicity to HEKa cells: no observable toxicity
[1]; listed as octamer
  toxicity to HEKa cells: non-toxic at concentrations as high as 10 mg/mL

## C[C@H](N)C(=O)N[C@H]1CSSC[C@@H](C(=O)NCC(=O)O)NC(=O)[C@H](CCC(N)=O)NC(=O)[C@H](Cc2c[nH]cn2)NC(=O)[C@H](CCC(N)=O)NC(=O)[C@H]([C@@H](C)O)NC(=O)[C@H](CO)NC(=O)CNC(=O)[C@H]([C@@H](C)O)NC1=O [SPACE™, ACTGSTQHQCG, reference compound] (H-ACTGSTQHQCG-OH; disulfide 2-10; N-terminus and C-terminus assumed)
[2]
  Skin permeation, Dermis: 200.6 ± 59.3 μg/cm^2
  Skin permeation, Receptor: 96.0 ± 31.1 μg/cm^2
  Skin permeation, SC + Epidermis: 782.5 ± 84.7 μg/cm^2
[4]
  viability at 5000 µg/mL: 99.4 ± 3.9%

B1: SP7-4 (…) (peptide)
peptide: ACTSTGRNACG
modifications: disulfide 2-10 (inferred)
Human keratin (human) [5]
  Experimental Qmax: 3.43 mg/mL resin
  Kd: 15.8 µM
Human keratin (human) [6]
  Kd: 716 µg/mL

B2: SP7-3 (…) (peptide)
peptide: ACLSVNHNACG
modifications: disulfide 2-10 (inferred)
Human keratin (human) [5]
  Experimental Qmax: 4.07 mg/mL resin
  Kd: 9.4 µM
Human keratin (human) [6]
  Kd: 423 µg/mL

B3: SP7-2 (…) (peptide)
peptide: ACSLTVNWNCG
modifications: disulfide 2-10 (inferred)
Human keratin (human) [5]
  Experimental Qmax: 4.09 mg/mL resin
  Kd: 8.73 µM
Human keratin (human) [6]
  Kd: 393 µg/mL

B4: SP7-1 (…) (peptide)
peptide: ACSATLQHSCG
modifications: disulfide 2-10 (inferred)
Human keratin (human) [5]
  Experimental Qmax: 4.16 mg/mL resin
  Kd: 8.02 µM
Human keratin (human) [6]
  Kd: 361 µg/mL

B5: SPACE™ peptide (…) (peptide)
peptide: ACTGSTQHQCG
modifications: disulfide 2-10 (inferred)
Human keratin (human) [5]
  Experimental Qmax: 3.98 mg/mL resin
  Kd: 10.6 µM
Human keratin (human) [6]
  Kd: 477 µg/mL

B6: SP7-5 (…) (peptide)
peptide: ACSASTNHNCG
modifications: disulfide 2-10 (inferred)
Human keratin (human) [5]
  Experimental Qmax: 4.01 mg/mL resin
  Kd: 10.1 µM
Human keratin (human) [6]
  Kd: 456 µg/mL
